Measurements reported in PubChem BioAssay (NCI).
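Growth conditions: 96-well plates. Treatment: test compound, 48 hours, 5 concentrations. Analysis: linear interpolation between bracketing concentrations; unreached endpoints set to highest concentration. The concentration for full growth arrest is given as TGI.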

Columns and labels:
Test in all cases: NCI anticancer screen, dose series, 48 h
A498 renal = test system: A498 renal
A549 NSCLC = test system: A549 NSCLC
ACHN renal = test system: ACHN renal
CAKI-1 renal = test system: CAKI-1 renal
CCRF-CEM leukemia = test system: CCRF-CEM leukemia
COLO 205 colon = test system: COLO 205 colon
DLD-1 colon = test system: DLD-1 colon
DMS 114 small cell lung = test system: DMS 114 small cell lung
DMS 273 small cell lung = test system: DMS 273 small cell lung
EKVX NSCLC = test system: EKVX NSCLC
HCT-116 colon = test system: HCT-116 colon
HCT-15 colon = test system: HCT-15 colon
HL-60(TB) leukemia = test system: HL-60(TB) leukemia
HOP-18 NSCLC = test system: HOP-18 NSCLC
HOP-92 NSCLC = test system: HOP-92 NSCLC
HT29 colon = test system: HT29 colon
IGROV1 ovarian = test system: IGROV1 ovarian
K-562 leukemia = test system: K-562 leukemia
KM12 colon = test system: KM12 colon
KM20L2 colon = test system: KM20L2 colon
LOX IMVI melanoma = test system: LOX IMVI melanoma
LXFL 529 NSCLC = test system: LXFL 529 NSCLC
M14 melanoma = test system: M14 melanoma
MALME-3M melanoma = test system: MALME-3M melanoma
MOLT-4 leukemia = test system: MOLT-4 leukemia
NCI-H226 lung = test system: NCI-H226 lung
NCI-H23 lung = test system: NCI-H23 lung
NCI-H460 lung = test system: NCI-H460 lung
OVCAR-4 ovarian = test system: OVCAR-4 ovarian
OVCAR-5 ovarian = test system: OVCAR-5 ovarian
OVCAR-8 ovarian = test system: OVCAR-8 ovarian
RPMI-8226 leukemia = test system: RPMI-8226 leukemia
RXF 393 renal = test system: RXF 393 renal
SF-268 CNS = test system: SF-268 CNS
SF-295 CNS = test system: SF-295 CNS
SF-539 CNS = test system: SF-539 CNS
SK-MEL-2 melanoma = test system: SK-MEL-2 melanoma
SK-MEL-28 melanoma = test system: SK-MEL-28 melanoma
SK-MEL-5 melanoma = test system: SK-MEL-5 melanoma
SN12C renal = test system: SN12C renal
SNB-19 CNS = test system: SNB-19 CNS
SNB-75 CNS = test system: SNB-75 CNS
SNB-78 CNS = test system: SNB-78 CNS
SR leukemia = test system: SR leukemia
SW-620 colon = test system: SW-620 colon
TK-10 renal = test system: TK-10 renal
U251 CNS = test system: U251 CNS
UACC-257 melanoma = test system: UACC-257 melanoma
UO-31 renal = test system: UO-31 renal
XF 498 CNS = test system: XF 498 CNS
786-0 renal = test system: 786-0 renal
HCC-2998 colon = test system: HCC-2998 colon
HOP-62 NSCLC = test system: HOP-62 NSCLC
M19-MEL melanoma = test system: M19-MEL melanoma
NCI-H522 lung = test system: NCI-H522 lung
OVCAR-3 ovarian = test system: OVCAR-3 ovarian
SK-OV-3 ovarian = test system: SK-OV-3 ovarian
UACC-62 melanoma = test system: UACC-62 melanoma
RXF-631 renal = test system: RXF-631 renal

Measured: TGI

Nc1[nH]c(=O)nc2c1cnn2COCCO
99.9 µM: TK-10 renal
93.7 µM: RXF 393 renal
52.8 µM: U251 CNS
73.6 µM: OVCAR-5 ovarian
6.85 µM: KM20L2 colon
53.2 µM: NCI-H23 lung
6.36 µM: NCI-H226 lung
not listed: 786-0 renal | HCC-2998 colon | HOP-62 NSCLC | M19-MEL melanoma | NCI-H522 lung | OVCAR-3 ovarian | SK-OV-3 ovarian | UACC-62 melanoma | RXF-631 renal
> 100 µM: all other assays above

O=C1C(Cl)C(c2ccc(O)cc2)N1n1cnc2ccccc2c1=O (stereo not given)
45.3 µM: LOX IMVI melanoma
96.8 µM: M14 melanoma
> 90.1 µM: OVCAR-3 ovarian
25.6 µM: ACHN renal
69.8 µM: SR leukemia
72.3 µM: HL-60(TB) leukemia
> 60.3 µM: CAKI-1 renal
32.6 µM: NCI-H522 lung
57.7 µM: RPMI-8226 leukemia
58.4 µM: COLO 205 colon
70.2 µM: SK-MEL-28 melanoma
> 94 µM: OVCAR-4 ovarian
48.4 µM: UACC-62 melanoma
47.8 µM: SW-620 colon
> 68.8 µM: HT29 colon
55.3 µM: DLD-1 colon
> 81 µM: DMS 114 small cell lung
> 96.3 µM: NCI-H23 lung
> 66.8 µM: XF 498 CNS
33 µM: HCT-116 colon
26 µM: OVCAR-8 ovarian
> 83.9 µM: MALME-3M melanoma
39.5 µM: LXFL 529 NSCLC
93.4 µM: MOLT-4 leukemia
35.7 µM: RXF 393 renal
> 63.8 µM: SK-MEL-2 melanoma
46.9 µM: M19-MEL melanoma
not listed: RXF-631 renal
> 100 µM: all other assays above

NC(CCc1nc(-c2cccc([N+](=O)[O-])c2)cs1)C(=O)O (stereo not given)
not listed: CAKI-1 renal | COLO 205 colon | DLD-1 colon | HCT-15 colon | HOP-18 NSCLC | K-562 leukemia | LOX IMVI melanoma | LXFL 529 NSCLC | MALME-3M melanoma | NCI-H226 lung | OVCAR-4 ovarian | RPMI-8226 leukemia | SF-268 CNS | SF-539 CNS | SK-MEL-2 melanoma | SK-MEL-5 melanoma | SN12C renal | SNB-75 CNS | SW-620 colon | XF 498 CNS | 786-0 renal | HCC-2998 colon | OVCAR-3 ovarian
> 100 µM: all other assays above

c1cc2c(cc1C1OCC3C(c4ccc5c(c4)OCO5)OCC13)OCO2 (stereo not given)
99.8 µM: XF 498 CNS
83.7 µM: SK-MEL-5 melanoma
not listed: CAKI-1 renal | DMS 273 small cell lung | HL-60(TB) leukemia | RPMI-8226 leukemia | SR leukemia | RXF-631 renal
> 100 µM: all other assays above

CCOC(=O)C(C(=O)OCC)c1cc(-c2cc3ccccc3o2)oc(=O)c1C#N
55.7 µM: MALME-3M melanoma
52.6 µM: SW-620 colon
65.4 µM: HOP-18 NSCLC
44.9 µM: HCT-116 colon
36.8 µM: SF-539 CNS
48.2 µM: SF-295 CNS
31.8 µM: LOX IMVI melanoma
73.4 µM: SNB-78 CNS
60.1 µM: DMS 273 small cell lung
37.5 µM: KM20L2 colon
70.1 µM: A498 renal
52.1 µM: TK-10 renal
38.2 µM: SK-MEL-2 melanoma
64.8 µM: HL-60(TB) leukemia
90.6 µM: SNB-75 CNS
49.1 µM: OVCAR-8 ovarian
> 100 µM: A549 NSCLC | ACHN renal | CCRF-CEM leukemia | EKVX NSCLC | K-562 leukemia | KM12 colon | NCI-H460 lung | RPMI-8226 leukemia | SF-268 CNS | SK-MEL-5 melanoma | SNB-19 CNS
71.4 µM: OVCAR-4 ovarian
80 µM: IGROV1 ovarian
38.1 µM: CAKI-1 renal
30.6 µM: U251 CNS
66.3 µM: SR leukemia
48.7 µM: COLO 205 colon
35 µM: HT29 colon
36.9 µM: M14 melanoma
43.5 µM: RXF 393 renal
35.7 µM: HCT-15 colon
63.3 µM: SK-MEL-28 melanoma
62.9 µM: SN12C renal
36.7 µM: NCI-H23 lung
46.9 µM: HCC-2998 colon
33.1 µM: OVCAR-5 ovarian
90.3 µM: UO-31 renal
41.9 µM: NCI-H226 lung
36.3 µM: XF 498 CNS
87.2 µM: MOLT-4 leukemia
67.1 µM: DMS 114 small cell lung
76.4 µM: UACC-257 melanoma
41.8 µM: LXFL 529 NSCLC
20.6 µM: HOP-92 NSCLC

COC(=O)C(=O)C(C(=O)OC)C(=O)C(=O)Nc1cc(Cl)c(C)cc1S(=O)(=O)O (stereo not given)
not listed: HOP-92 NSCLC | RPMI-8226 leukemia | RXF-631 renal
> 100 µM: all other assays above

C/C=C1\Oc2ccc(OC)cc2S1(=O)=O
not listed: SF-539 CNS | XF 498 CNS | RXF-631 renal
> 100 µM: all other assays above

O=C(c1ccccc1)n1cc(/C=C/[N+](=O)[O-])c2ccccc21
35.6 µM: SK-MEL-2 melanoma
33.6 µM: SK-MEL-28 melanoma
47.7 µM: K-562 leukemia
47.3 µM: UACC-257 melanoma
32.5 µM: KM12 colon
28.8 µM: NCI-H522 lung
29.8 µM: LOX IMVI melanoma
43.3 µM: NCI-H460 lung
96.7 µM: MALME-3M melanoma
78.5 µM: XF 498 CNS
44.9 µM: SR leukemia
38 µM: DMS 114 small cell lung
13.3 µM: HL-60(TB) leukemia
40.3 µM: MOLT-4 leukemia
77.3 µM: OVCAR-4 ovarian
79.9 µM: SNB-78 CNS
54.1 µM: HOP-92 NSCLC
33.5 µM: DLD-1 colon
66.1 µM: UO-31 renal
39.8 µM: HCT-15 colon
52.3 µM: SF-268 CNS
36.9 µM: RXF 393 renal | UACC-62 melanoma
48.2 µM: RXF-631 renal
82.1 µM: SNB-75 CNS
41 µM: M14 melanoma
59.2 µM: COLO 205 colon
35.1 µM: CCRF-CEM leukemia | LXFL 529 NSCLC
33.3 µM: U251 CNS
92.3 µM: SNB-19 CNS
39.9 µM: RPMI-8226 leukemia
38.9 µM: M19-MEL melanoma
38.1 µM: SW-620 colon
32 µM: HCT-116 colon
54.7 µM: IGROV1 ovarian
39 µM: 786-0 renal
46.4 µM: SF-539 CNS
55.1 µM: DMS 273 small cell lung
37.6 µM: NCI-H23 lung
not listed: KM20L2 colon | NCI-H226 lung | HCC-2998 colon
> 100 µM: all other assays above
